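1) Cells in 96-well plates. 2) Compound, 48 h, 5 concentrations. 3) Linear interpolation between surrounding doses. 4) Unreached endpoint = highest concentration. At the TGI there is no net growth.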 Where a SMILES comes first, the peptide text is derived from it. [ ]: non-standard residue; d: D form. The star is where a group is joined. ξ: configuration not given here. ξHyp = O=C(O)C1CC(O)CN1; Cbz = O=C(OCc1ccccc1)*
Legend:
Test in all cases: NCI anticancer screen, dose series, 48 h
TK-10 renal = test system: TK-10 renal
EKVX NSCLC = test system: EKVX NSCLC
PC-3 prostate = test system: PC-3 prostate
NCI-H226 lung = test system: NCI-H226 lung
HOP-62 NSCLC = test system: HOP-62 NSCLC
HCC-2998 colon = test system: HCC-2998 colon
M14 melanoma = test system: M14 melanoma
RPMI-8226 leukemia = test system: RPMI-8226 leukemia
HCT-15 colon = test system: HCT-15 colon
UACC-257 melanoma = test system: UACC-257 melanoma
MALME-3M melanoma = test system: MALME-3M melanoma
HCT-116 colon = test system: HCT-116 colon
BT-549 breast = test system: BT-549 breast
SF-295 CNS = test system: SF-295 CNS
NCI-H23 lung = test system: NCI-H23 lung
K-562 leukemia = test system: K-562 leukemia
MDA-MB-231 breast = test system: MDA-MB-231 breast
HT29 colon = test system: HT29 colon
RXF 393 renal = test system: RXF 393 renal
SN12C renal = test system: SN12C renal
MDA-MB-435 = test system: MDA-MB-435
OVCAR-4 ovarian = test system: OVCAR-4 ovarian
DU-145 prostate = test system: DU-145 prostate
OVCAR-5 ovarian = test system: OVCAR-5 ovarian
SNB-19 CNS = test system: SNB-19 CNS
UO-31 renal = test system: UO-31 renal
SK-MEL-2 melanoma = test system: SK-MEL-2 melanoma
OVCAR-3 ovarian = test system: OVCAR-3 ovarian
LOX IMVI melanoma = test system: LOX IMVI melanoma
SK-OV-3 ovarian = test system: SK-OV-3 ovarian
U251 CNS = test system: U251 CNS
MDA-N = test system: MDA-N
MOLT-4 leukemia = test system: MOLT-4 leukemia
KM12 colon = test system: KM12 colon
NCI-H522 lung = test system: NCI-H522 lung
SK-MEL-5 melanoma = test system: SK-MEL-5 melanoma
SW-620 colon = test system: SW-620 colon
SR leukemia = test system: SR leukemia
MCF7 breast = test system: MCF7 breast
SF-268 CNS = test system: SF-268 CNS
786-0 renal = test system: 786-0 renal
SK-MEL-28 melanoma = test system: SK-MEL-28 melanoma
NCI/ADR-RES ovarian = test system: NCI/ADR-RES ovarian
OVCAR-8 ovarian = test system: OVCAR-8 ovarian
HS 578T breast = test system: HS 578T breast
A549 NSCLC = test system: A549 NSCLC
ACHN renal = test system: ACHN renal
SNB-75 CNS = test system: SNB-75 CNS
T-47D breast = test system: T-47D breast
COLO 205 colon = test system: COLO 205 colon
CCRF-CEM leukemia = test system: CCRF-CEM leukemia
IGROV1 ovarian = test system: IGROV1 ovarian
A498 renal = test system: A498 renal
UACC-62 melanoma = test system: UACC-62 melanoma
HL-60(TB) leukemia = test system: HL-60(TB) leukemia
NCI-H460 lung = test system: NCI-H460 lung
HOP-92 NSCLC = test system: HOP-92 NSCLC
CAKI-1 renal = test system: CAKI-1 renal
SF-539 CNS = test system: SF-539 CNS

NC(=O)CNC(=O)C1CC(O)CN1C(=O)OCc1ccccc1 (stereo unspecified) (Cbz-[ξHyp]-Gly-NH2)
TGI (TK-10 renal): > 100 µM
TGI (EKVX NSCLC): > 100 µM
TGI (PC-3 prostate): > 100 µM
TGI (NCI-H226 lung): > 100 µM
TGI (HOP-62 NSCLC): > 100 µM
TGI (HCC-2998 colon): > 100 µM
TGI (M14 melanoma): > 100 µM
TGI (RPMI-8226 leukemia): > 100 µM
TGI (HCT-15 colon): > 100 µM
TGI (UACC-257 melanoma): > 100 µM
TGI (MALME-3M melanoma): > 100 µM
TGI (HCT-116 colon): > 100 µM
TGI (BT-549 breast): > 100 µM
TGI (SF-295 CNS): > 100 µM
TGI (NCI-H23 lung): > 100 µM
TGI (K-562 leukemia): > 100 µM
TGI (MDA-MB-231 breast): > 100 µM
TGI (HT29 colon): > 100 µM
TGI (RXF 393 renal): > 100 µM
TGI (SN12C renal): > 100 µM
TGI (MDA-MB-435): > 100 µM
TGI (OVCAR-4 ovarian): > 100 µM
TGI (DU-145 prostate): > 100 µM
TGI (OVCAR-5 ovarian): > 100 µM
TGI (SNB-19 CNS): > 100 µM
TGI (UO-31 renal): > 100 µM
TGI (SK-MEL-2 melanoma): > 100 µM
TGI (OVCAR-3 ovarian): > 100 µM
TGI (LOX IMVI melanoma): > 100 µM
TGI (SK-OV-3 ovarian): > 100 µM
TGI (U251 CNS): > 100 µM
TGI (MDA-N): > 100 µM
TGI (MOLT-4 leukemia): > 100 µM
TGI (KM12 colon): > 100 µM
TGI (NCI-H522 lung): > 100 µM
TGI (SK-MEL-5 melanoma): > 100 µM
TGI (SW-620 colon): > 100 µM
TGI (SR leukemia): > 100 µM
TGI (MCF7 breast): > 100 µM
TGI (SF-268 CNS): > 100 µM
TGI (786-0 renal): > 100 µM
TGI (SK-MEL-28 melanoma): > 100 µM
TGI (NCI/ADR-RES ovarian): > 100 µM
TGI (OVCAR-8 ovarian): > 100 µM
TGI (HS 578T breast): > 100 µM
TGI (A549 NSCLC): > 100 µM
TGI (ACHN renal): > 100 µM
TGI (SNB-75 CNS): > 100 µM
TGI (T-47D breast): > 100 µM
TGI (COLO 205 colon): > 100 µM
TGI (CCRF-CEM leukemia): > 100 µM
TGI (IGROV1 ovarian): > 100 µM
TGI (A498 renal): > 100 µM
TGI (UACC-62 melanoma): > 100 µM
TGI (HL-60(TB) leukemia): > 100 µM
TGI (NCI-H460 lung): > 100 µM

O=C1CC2(CCC(O)(c3ccco3)C(C(=O)c3ccco3)C2)C(=O)c2ccccc2N1 (stereo unspecified)
TGI (TK-10 renal): > 100 µM
TGI (EKVX NSCLC): > 100 µM
TGI (PC-3 prostate): > 100 µM
TGI (NCI-H226 lung): > 100 µM
TGI (HOP-62 NSCLC): > 100 µM
TGI (HCC-2998 colon): > 100 µM
TGI (M14 melanoma): > 100 µM
TGI (HCT-15 colon): > 100 µM
TGI (UACC-257 melanoma): > 100 µM
TGI (MALME-3M melanoma): > 100 µM
TGI (HCT-116 colon): > 100 µM
TGI (BT-549 breast): > 100 µM
TGI (SF-295 CNS): > 100 µM
TGI (NCI-H23 lung): > 100 µM
TGI (K-562 leukemia): > 100 µM
TGI (MDA-MB-231 breast): > 100 µM
TGI (HT29 colon): > 100 µM
TGI (RXF 393 renal): > 100 µM
TGI (SN12C renal): > 100 µM
TGI (MDA-MB-435): > 100 µM
TGI (OVCAR-4 ovarian): 57 µM
TGI (DU-145 prostate): > 100 µM
TGI (OVCAR-5 ovarian): > 100 µM
TGI (UO-31 renal): > 100 µM
TGI (SK-MEL-2 melanoma): > 100 µM
TGI (OVCAR-3 ovarian): > 100 µM
TGI (LOX IMVI melanoma): > 100 µM
TGI (SK-OV-3 ovarian): > 100 µM
TGI (U251 CNS): > 100 µM
TGI (MDA-N): > 100 µM
TGI (SK-MEL-5 melanoma): > 100 µM
TGI (SW-620 colon): > 100 µM
TGI (SR leukemia): > 100 µM
TGI (MCF7 breast): > 100 µM
TGI (SF-268 CNS): > 100 µM
TGI (NCI/ADR-RES ovarian): > 100 µM
TGI (OVCAR-8 ovarian): > 100 µM
TGI (HOP-92 NSCLC): > 100 µM
TGI (HS 578T breast): > 100 µM
TGI (A549 NSCLC): > 100 µM
TGI (SNB-75 CNS): > 100 µM
TGI (T-47D breast): 81.7 µM
TGI (COLO 205 colon): > 100 µM
TGI (IGROV1 ovarian): > 100 µM
TGI (A498 renal): > 100 µM
TGI (CAKI-1 renal): > 100 µM
TGI (UACC-62 melanoma): > 100 µM
TGI (SF-539 CNS): > 100 µM
TGI (HL-60(TB) leukemia): > 100 µM
TGI (NCI-H460 lung): > 100 µM

— PubChem BioAssay (NCI)
